Laboratory results taken from patent US9758459B2, “Allosteric modulators of factor XIa as anticoagulant agents” (VIRGINIA COMMONWEALTH UNIVERSITY, priority 2012, dated 2017).
“And” between values parts separate entries of the source, which are not always exact repeats. Equal values may be shown once.

How the values were obtained:
Assay type in all cases: biochemical
human factor XIa [1] = target: T1, human factor XIa (Homo sapiens, UniProt P03951); test: Direct inhibition of factor XIa, chromogenic substrate S-2366 hydrolysis assay
T1 construct: purchased Haematologic Technologies (Essex Junction, Vt.); host or cells: human plasma
T1 sequence (P03951 19-387 limits assumed): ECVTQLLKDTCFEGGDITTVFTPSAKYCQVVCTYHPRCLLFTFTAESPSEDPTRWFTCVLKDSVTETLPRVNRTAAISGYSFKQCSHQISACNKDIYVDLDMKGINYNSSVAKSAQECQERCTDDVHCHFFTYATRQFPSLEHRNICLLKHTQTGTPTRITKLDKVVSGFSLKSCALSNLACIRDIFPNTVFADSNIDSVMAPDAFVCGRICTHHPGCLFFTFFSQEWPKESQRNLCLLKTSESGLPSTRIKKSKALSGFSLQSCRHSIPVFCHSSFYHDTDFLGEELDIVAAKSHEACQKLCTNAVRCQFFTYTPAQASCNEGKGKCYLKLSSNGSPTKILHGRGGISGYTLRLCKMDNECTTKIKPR
T1 sequence (P03951 388-625 limits assumed): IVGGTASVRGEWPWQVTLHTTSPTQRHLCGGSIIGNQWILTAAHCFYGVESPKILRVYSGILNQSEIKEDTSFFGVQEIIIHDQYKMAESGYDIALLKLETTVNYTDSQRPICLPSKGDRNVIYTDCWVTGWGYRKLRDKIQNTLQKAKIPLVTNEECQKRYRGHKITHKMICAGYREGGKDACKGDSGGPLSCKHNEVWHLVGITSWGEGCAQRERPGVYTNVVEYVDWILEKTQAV
Description: Solvent A consisted of 25 mM n-hexylamine in water containing 0.1% (v/v) formic acid, while solvent B consisted of 25 mM n-hexylamine in acetonitrile-water mixture (3:1 v/v) containing 0.1% (v/v) formic acid. […] The sample was first monitored for absorbance in the range of 190-400 nm and then directly introduced into the mass spectrometer. ESI-MS detection was performed in positive ion mode for which the capillary voltage was 4 kV, cone voltage was 20 V, desolvation temperature was 350° C. and nitrogen gas flow was maintained at 650 L/hr. Mass scans were collected in the range of 1000-2048 amu within 0.25 s and several of these added to enhanced signal-to-noise ratio. Direct Inhibition of Factor XIa. […] After 10 min incubation, 5 μL factor XIa substrate (345 μM) was rapidly added and the residual FXIa activity was measured from the initial rate of increase in absorbance at 405 nm. […] Relative residual FXIa activity at each concentration of the inhibitor was calculated from the ratio of FXIa activity in the presence and absence of the inhibitor. Logistic equation 1 was used to fit the dose-dependence of residual protease activity to obtain the potency (IC50) and efficacy (ΔY) of inhibition.
Direct Inhibition of Factor XIa by Sulfated QAOs was performed as described in Example 1.
The ability of the sulfated inositol analogs to inhibit factor XIa was studied using the in vitro assay described in Example 1. In this assay, the factor XIa enzyme is anticipated to hydrolyze a particular peptide linkage in the corresponding peptide substrate releasing p-nitroaniline which absorbs at wavelength of 405 nm giving a line slope corresponds to the enzyme activity. The line slope of no inhibitor status is considered as a reference slope and it depends on the relative concentrations of factor XIa enzyme and its substrate. Factor XIa enzyme concentration was decided to get appropriate reference slope of approximately 25-35, whereas the substrate concentration was set to be larger than its affinity to factor XIa enzyme under equilibrium condition, Km. In presence of potential factor XIa inhibitor, the enzyme capacity to hydrolyze the designated peptide linkage in the substrate gets diminished or completely abolished depending on the inhibitor concentration and efficacy. […] Such decreased slope reflects a drop in the catalytic enzyme activity of factor XIa.

human plasma [2] = test: Activated partial thromboplastin time (APTT) plasma clotting assay; conditions: human plasma, concentration doubling clotting time
Description: (§1) Plasma clotting assays, prothrombin and activated partial thromboplastin time (PT and APTT, respectively), are routinely used to assess the anticoagulation potential of new enzyme inhibitors in an in vitro setting. Whereas PT measures the effect of an inhibitor on the extrinsic pathway of coagulation, APTT measures the effect on the intrinsic pathway.
(§2) Prothrombin Time (PT) and Activated Partial Thromboplastin Time (APTT) were assessed as described in Example 1.

human plasma [3] = test: Prothrombin time (PT) plasma clotting assay; conditions: concentration doubling clotting time
Description: as §1, §2

[4] = target: T2, recombinant wild type FXIa catalytic domain (FXIa-CD) (Homo sapiens, UniProt P03951, C500S); test: 16S inhibition of recombinant FXIa catalytic domain, S2366 hydrolysis
T2 construct: eliminating the bond allows the catalytic domain of FXIa (FXIa-CD) to separate from the heavy chain; made in house; host or cells: HEK-293
T2 sequence (P03951 388-625 C500S): as the sequence (P03951 388-625 limits assumed) above, with C113S counted along it
Source text: (§3) FIG. 15. […] Solid lines represent sigmoidal dose-response fits.
(§4) Mutagenesis and Expression of Recombinant Factor XIa. Mutations in the FXIa 170 helix were introduced into a modified human FXI cDNA (FXI-Ser-362,482), which contains serine substitutions for Cys362 and Cys482 (FXI numbering), as described earlier in several papers.^7,8 A disulfide bond between these residues connects the heavy chains and catalytic domains after cleavage at the activation site, and eliminating the bond allows the catalytic domain of FXIa (FXIa-CD) to separate from the heavy chain. The basic residues of the FXIa 170-helix, Lys529, Arg530, Arg532, Lys535 and Lys539 in the FXI numbering system (correspond to residues 170, 171, 173, 175 and 179 in the chymotrypsinogen numbering system), were changed to alanine individually and as a group using a Quick Change kit (Stratagene, La Jolla, Calif.). cDNAs in expression vector pJVCMV were used to transfect HEK-293 cells as described. Stably expressing clones were expanded in 175 cm^2 flasks, and serum free media (Cellgro Complete, Mediatech, Herndon, Va.) was collected every 48 hours, supplemented with benzamidine (5 mM) and stored at −80° C. pending purification. Recombinant FXI was purified from conditioned media on an anti-fXI IgG 1G5.12 affinity column. After loading, the column was washed with 25 mM Tris-HCl, pH 7.4, 100 mM NaCl, and eluted with 2M NaSCN in the same buffer. Protein containing fractions were pooled, concentrated and dialyzed, and protein concentrations were determined by dye-binding assay (Bio-Rad). Recombinant wild-type FXI or FXI-CD (˜200-300 μg/ml) was activated with 5 μg/ml FXIIa at 37° C. Completion of activation was confirmed by SDS-PAGE. Activated preparations were passed over a 1G5.12 column to separate the protease from FXIIa. In the case of proteins prepared in FXI-Ser-362,482, the catalytic domains bind to the column, while the heavy chain passes through.
(§5) Heparin binds to FXIa in two sites—in the A3 domain (Lys252, Lys253, and Lys255) and in the catalytic domain (Lys529, Arg530, Arg532, Lys535, and Lys539). […]

[5] = target: T3, Arg530Ala FXIa-CD single mutant (Homo sapiens, UniProt P03951, C500S/R548A); test: 16S inhibition of Arg530Ala FXIa-CD, S2366 hydrolysis; conditions: Arg530 replaced by Ala
T3 construct: eliminating the bond allows the catalytic domain of FXIa (FXIa-CD) to separate from the heavy chain; made in house; host or cells: HEK-293
T3 sequence (P03951 388-625 C500S/R548A): as the sequence (P03951 388-625 limits assumed) above, with C113S, R161A counted along it
Source text: as §3
as §4, with “Recombinant FXI was purified from conditioned media on an anti-fXI IgG 1G5.12 affinity column. After loading, the column was washed with 25 mM Tris-HCl, pH 7.4, 100 mM NaCl, and eluted with 2M NaSCN in the same buffer.” left out, “Recombinant wild-type FXI or FXI-CD (˜200-300 μg/ml) was activated with 5 μg/ml FXIIa at 37° C. Completion of activation was confirmed by SDS-PAGE. Activated preparations were passed over a 1G5.12 column to separate the protease from FXIIa. In the case of proteins prepared in FXI-Ser-362,482, the catalytic domains bind to the column, while the heavy chain passes through.” left out

[6] = target: T4, Lys529Ala,Arg530Ala,Arg532Ala FXIa-CD triple mutant (Homo sapiens, UniProt P03951, C500S/K547A/R548A/R550A); test: 16S inhibition of triple mutant FXIa-CD, S2366 hydrolysis
T4 construct: eliminating the bond allows the catalytic domain of FXIa (FXIa-CD) to separate from the heavy chain; made in house; host or cells: HEK-293
T4 sequence (P03951 388-625 C500S/K547A/R548A/R550A): as the sequence (P03951 388-625 limits assumed) above, with C113S, K160A, R161A, R163A counted along it
Source text: as §3, §4, §5

Lys535Ala FXIa-CD = target: T5, Lys535Ala FXIa-CD (Homo sapiens, UniProt P03951, C500S/K553A); test: 16S inhibition of Lys535Ala FXIa-CD; conditions: not shown
T5 construct: eliminating the bond allows the catalytic domain of FXIa (FXIa-CD) to separate from the heavy chain; made in house; host or cells: HEK-293
T5 sequence (P03951 388-625 C500S/K553A): as the sequence (P03951 388-625 limits assumed) above, with C113S, K166A counted along it
Source text: as §4, with “After loading, the column was washed with 25 mM Tris-HCl, pH 7.4, 100 mM NaCl, and eluted with 2M NaSCN in the same buffer.” left out, “Recombinant wild-type FXI or FXI-CD (˜200-300 μg/ml) was activated with 5 μg/ml FXIIa at 37° C. Completion of activation was confirmed by SDS-PAGE. Activated preparations were passed over a 1G5.12 column to separate the protease from FXIIa. In the case of proteins prepared in FXI-Ser-362,482, the catalytic domains bind to the column, while the heavy chain passes through.” left out

Lys539Ala FXIa-CD = target: T6, Lys539Ala FXIa-CD (Homo sapiens, UniProt P03951, C500S/K557A); test: 16S inhibition of Lys539Ala FXIa-CD; conditions: not shown
T6 construct: eliminating the bond allows the catalytic domain of FXIa (FXIa-CD) to separate from the heavy chain; made in house; host or cells: HEK-293
T6 sequence (P03951 388-625 C500S/K557A): as the sequence (P03951 388-625 limits assumed) above, with C113S, K170A counted along it
Source text: as §4, with “After loading, the column was washed with 25 mM Tris-HCl, pH 7.4, 100 mM NaCl, and eluted with 2M NaSCN in the same buffer.” left out, “Recombinant wild-type FXI or FXI-CD (˜200-300 μg/ml) was activated with 5 μg/ml FXIIa at 37° C. Completion of activation was confirmed by SDS-PAGE. Activated preparations were passed over a 1G5.12 column to separate the protease from FXIIa. In the case of proteins prepared in FXI-Ser-362,482, the catalytic domains bind to the column, while the heavy chain passes through.” left out

human factor XIa [7] = target: T1, human factor XIa; test: Direct inhibition of factor XIa, chromogenic substrate S-2366 hydrolysis assay; conditions: FXIa-WT, 16S plus 30 μM polybrene

proteolytic activity in the presence of 16S (human factor XIa [1]; full length wild-type FXIa, no polybrene): approximately 4% | ΔY % (efficacy) (human factor XIa [1]; sulfated QAOs): 97 ± 1% | IC50 (human factor XIa [1]; sulfated QAOs, pH 7.4, 37° C., read-out: IC50 (converted)): ~50 µM and 52 µM | inhibition level after addition of polybrene ([4]; FXIa-CD, 16S plus 30 μM polybrene): 13.1±0.7% | proteolytic activity in the presence of 16S ([4]; FXIa-CD, no polybrene): ~6% | inhibition of FXIa-CD compared with wild-type enzyme ([4]; not shown): as potently as the wild-type enzyme | increase in IC50 versus FXIa-CD [5]: 2 fold | proteolytic activity in the presence of 16S ([6]; FXIa-CD triple mutations, no polybrene): ~5% | inhibition level after addition of polybrene ([6]; FXIa-CD with triple mutations, 16S plus 30 μM polybrene): 7.1±1.2% | reduction of potency versus FXIa-CD ([6]; Lys529, Arg530 and Arg532 replaced by Ala): approximately 5 fold | change in IC50 from wild-type FXIa-CD (Lys535Ala FXIa-CD): no change in IC50 | change in IC50 from wild-type FXIa-CD (Lys539Ala FXIa-CD): no change in IC50 | inhibition level after addition of polybrene (human factor XIa [7]): 9.2±1.0%
SMILES: O=c1c2ccccc2nc(-c2ccc(OS(=O)(=O)O)cc2)n1CCCCCCn1cc(Cn2c(-c3ccc(OS(=O)(=O)O)cc3)nc3ccccc3c2=O)nn1 [Inhibitor 16S]
2 × APTT (human plasma [2]): 950 µM | 2 × PT (human plasma [3]): >2000 µM
